In patent publication US10758511B2, “Stable analogs of CYP450 lipid metabolites and inhibitors of soluble epoxide hydrolase” (Massachusetts Eye and Ear Infirmary, priority 2015, dated 2020):
Converted amounts (≈) assume the structure as drawn. Marks after values point to notes of the source that are not given here.

Key:
[1] = Formulations of selected inhibitors of sEH (mg/mL); type: physicochemical
C57BL/6 mice = experiment: Laser-induced CNV model (flat-mount, SD-OCT, fluorescein angiography); type: in vivo, mouse; settings: for CNV size or severity compared to base line controls: EETs once a day after laser photocoagulation
Description: J Med Chem 54(12):4109-4118).

[2] = system: peripheral blood leukocytes (PBLs); experiment: Autoperfused microflow chamber assay, leukocyte rolling velocity; type: in vivo, mouse; settings: chamber coated with ICAM-1 and P-selectin, 50 μg/kg/day i.p., day 3 after CNV induction
Protocol: A combination of intercellular adhesion molecule 1 (ICAM-1) and P-selectin (R&D Systems), each at a concentration of 5 μg/mL, was used to coat translucent microchambers (0.4×0.04×50 mm, VitroCom) overnight at 4° C. Biocompatible polyester tubing (PE10; Becton Dickinson) was attached to both ends of each microchamber, and the apparatus was subsequently incubated for 1 hour with 0.1% BSA (Sigma-Aldrich) in order to prevent nonspecific leukocyte interaction with the inner surface of the apparatus. The left jugular vein and right carotid artery in an anesthetized mouse were surgically connected to the free ends of both tubes, thus allowing blood to flow from the right carotid artery and into the microchamber (via the inlet tube), and then into the left jugular vein (via the outlet tube) for recirculation. Blood flow rate through the microchamber was controlled via a screw valve on the inlet tube that could change the tube diameter. For continuous blood pressure measurements, three-way connectors were used to embed microtransducers (Harvard Apparatus) before and after the microchamber. Digitizing the analog output from these microtransducers required an A/D converter (ML785 PowerLab/8SP; ADInstruments) linked to a computer running CHART V7 software (ADInstruments). […] A fixed-stage intravital microscope (Leica) with a 63× objective and a monochromic camera (DFC 360 FX; Leica) were used to observe and record leukocyte rolling along immobilized adhesion molecules. Recordings lasted at least 30 s and incorporated ten different fields of view. Using ImageJ software, leukocyte rolling velocity was calculated based on individual cell displacement along the surface of the chamber over time (i.e., Δd/Δt). Flux was calculated as the mean number of leukocytes interacting with the chamber surface per field of view (i.e., average of 10 independent fields of view).
Autoperfused Microflow Chamber assay was used to assess the impact of 17,18-EEQ and 19,20-EDP on systemic leukocyte recruitment during CNV development. The rolling velocity of peripheral blood leukocytes (PBLs) in the circulating blood was measured 3 days post CNV induction, as this reflects the peak of immune cell infiltration in this model.

E-selectin = experiment: Real-time PCR of E-selectin mRNA in laser-captured CNV lesions; type: in vivo, mouse; settings: 50 μg/kg/day i.p., 7 days post CNV induction
Protocol: Immediately after enucleation, mouse eyes were placed in optimum cutting temperature (OCT) compound and swiftly frozen. Under RNase-free conditions, eyes were cryosectioned (10 μm thickness per section) and mounted on polyethylene naphthalate glass slides (Leica). After dehydrating with washes of 50, 75, and 100% ethanol, the slides were stained with isolectin B4 at a dilution of 1:50 in 1 mM CaCl2. Laser-capture microdissection (Leica LMD 7000 system) was used to isolate chorioretinal vessels in CNV lesions, which were then placed in RNA-stabilizing buffer (RNeasy Micro Kit; Qiagen). […] Real-time PCR was conducted on a StepOne real-time PCR System (Applied Biosystems) with mouse TaqMan expression assays for the following genes (Applied Biosystems): E-selectin (Mm00441278_m1), kam-1 (Mm00516023_m1), and β-actin (Mm00607939_s1). All data were normalized to β-actin cDNA.

Rat sEH = biological target: T1, Rat sEH (Rattus norvegicus, UniProt P80299); experiment: sEH inhibition (IC50), fluorescent substrate CMNPC; type: biochemical; settings: CMNPC as a substrate; ureas found in Brassicales
T1 sequence (P80299 1-554): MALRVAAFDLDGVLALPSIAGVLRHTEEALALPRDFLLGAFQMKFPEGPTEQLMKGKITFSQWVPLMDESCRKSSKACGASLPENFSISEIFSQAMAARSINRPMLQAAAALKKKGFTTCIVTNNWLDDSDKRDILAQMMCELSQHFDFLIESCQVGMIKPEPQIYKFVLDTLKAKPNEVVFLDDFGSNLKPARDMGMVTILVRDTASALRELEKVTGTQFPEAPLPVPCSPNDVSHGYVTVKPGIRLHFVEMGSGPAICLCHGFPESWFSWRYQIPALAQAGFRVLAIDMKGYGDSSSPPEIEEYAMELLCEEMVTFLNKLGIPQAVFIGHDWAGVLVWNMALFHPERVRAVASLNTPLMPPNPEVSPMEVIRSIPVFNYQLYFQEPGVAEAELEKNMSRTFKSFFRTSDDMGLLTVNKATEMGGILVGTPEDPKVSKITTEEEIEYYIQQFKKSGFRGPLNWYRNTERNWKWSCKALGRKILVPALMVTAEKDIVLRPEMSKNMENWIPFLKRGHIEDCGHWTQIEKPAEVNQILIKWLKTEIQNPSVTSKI

[3] = Solubility in sodium phosphate buffer (pH7.4); type: physicochemical; settings: pH 7.4, aqueous buffer, Mean ± SD (n = 3)
Human sEH = biological target: T2, Human sEH (Homo sapiens, UniProt P34913); experiment: sEH inhibition (IC50), fluorescent substrate CMNPC; type: biochemical; settings: CMNPC as a substrate; ureas found in Brassicales
T2 sequence (P34913 1-555): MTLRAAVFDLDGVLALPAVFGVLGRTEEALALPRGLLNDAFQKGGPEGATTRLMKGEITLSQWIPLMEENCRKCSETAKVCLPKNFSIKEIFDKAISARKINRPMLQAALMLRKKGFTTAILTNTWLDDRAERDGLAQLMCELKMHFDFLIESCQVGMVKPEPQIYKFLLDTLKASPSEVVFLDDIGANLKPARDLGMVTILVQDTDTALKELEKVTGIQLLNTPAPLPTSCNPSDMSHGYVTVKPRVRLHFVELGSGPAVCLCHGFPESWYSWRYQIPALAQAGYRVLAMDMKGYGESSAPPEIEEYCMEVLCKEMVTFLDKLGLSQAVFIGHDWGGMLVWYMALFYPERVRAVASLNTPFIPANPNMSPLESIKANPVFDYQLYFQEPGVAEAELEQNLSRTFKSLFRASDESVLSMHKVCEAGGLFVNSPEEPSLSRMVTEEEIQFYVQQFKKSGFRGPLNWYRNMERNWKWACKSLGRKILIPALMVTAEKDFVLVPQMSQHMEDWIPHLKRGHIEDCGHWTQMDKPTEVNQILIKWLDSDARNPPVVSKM

[4] = sodium phosphate buffer (pH7.4); data from Kitamura et al., (2015); cited from earlier work
[5] = C57BL/6 mice, 7 d after CNV induction
[6] = C57BL/6 mice, 50 μg/kg/day i.p. once a day, 7 d after CNV induction

O=C(Nc1ccc(C(F)(F)F)cc1)NC1CCC(Oc2ccc(C(=O)O)cc2)CC1 (centres unmarked)
Formulation (mg/mL) EtOH [1]: 20 mg/mL
Formulation (mg/mL) PEG400 [1]: 20 mg/mL
Formulation (mg/mL) Trioleate [1]: 0.625 mg/mL

CC(C)C(=O)N1CCC(NC(=O)Nc2ccc(C(F)(F)F)cc2)CC1
Formulation (mg/mL) EtOH [1]: 20 mg/mL
Formulation (mg/mL) PEG400 [1]: 20 mg/mL
Formulation (mg/mL) Trioleate [1]: 0.625 mg/mL

CCCCS(=O)(=O)N1CCC(NC(=O)Nc2ccc(C(F)(F)F)cc2)CC1
Formulation (mg/mL) EtOH [1]: 13 mg/mL
Formulation (mg/mL) PEG400 [1]: 13 mg/mL
Formulation (mg/mL) Trioleate [1]: 1.25 mg/mL

CCCCC/C=C\C/C=C\CC1OC1C/C=C\CCCC(=O)O (centres unmarked) [8,9-EET, reference compound]
CNV size or severity compared to base line controls (C57BL/6 mice; [5]): do not affect
rolling velocity of PBLs ([2]; PBS 2.30±0.13): 1.14±0.15 μm/s

CCCCC/C=C\C[C@H]1O[C@H]1C/C=C\C/C=C\CCCC(=O)O [11,12-EET]
CNV size or severity compared to base line controls (C57BL/6 mice; [5]): do not affect
mRNA level of E-selectin in CNV lesions compared to PBS injected controls (E-selectin): significant increase
rolling velocity of PBLs ([2]; PBS 2.30±0.13): 1.41±0.45 μm/s

CCCCCC1OC1C/C=C\C/C=C\C/C=C\CCCC(=O)O (centres unmarked) [14,15-EET, reference compound]
CNV size or severity compared to base line controls (C57BL/6 mice; [5]): do not affect
rolling velocity of PBLs ([2]; PBS 2.30±0.13): 1.41±0.11 μm/s

CCC1OC1C/C=C\C/C=C\C/C=C\C/C=C\CCCC(=O)O (centres unmarked) [17,18-EEQ, 17,18-epoxyeicosatetraenoic acid]
rolling velocity of PBLs ([2]; PBS 0.94±0.06): 1.48±0.16 μm/s

CCC1OC1C/C=C\C/C=C\C/C=C\C/C=C\C/C=C\CCC(=O)O (centres unmarked) [19,20-EDP]
rolling velocity of PBLs ([2]; PBS 0.94±0.06): 1.44±0.12 μm/s

CCOCCOCCOCCCCCNC(=O)NC12CC3CC(CC(C3)C1)C2 [AEPU]
logP (physchem): 2.6

COc1ccc(CNC(=O)NCc2ccccc2)cc1 [BMU]
IC50 (Rat sEH): 182 nM
solubility [3]: 9 ± 4 µM (≈ 2.43 µg/mL)

O=C(NCc1ccccc1)NCc1ccccc1 [Compound 1]
IC50 (Rat sEH): 385 nM
solubility [3]: 43 ± 5 µM (≈ 10.3 µg/mL)

COc1cccc(CNC(=O)NCc2ccccc2)c1 [Compound 2]
IC50 (Human sEH): 534 nM
IC50 (Rat sEH): 308 nM
solubility [3]: 77 ± 9 µM (≈ 20.8 µg/mL)

COc1cccc(CNC(=O)NCc2cccc(OC)c2)c1 [Compound 3]
IC50 (Human sEH): 222 nM
IC50 (Rat sEH): 155 nM
solubility [3]: 101 ± 37 µM (≈ 30.3 µg/mL)

CNC(=O)C(=O)NCCCC/C=C\CCCCCCCCCC(=O)O [Compound C21, (Z)-16-(2-(methylamino)-2-oxoacetamido)hexadec-11-enoic acid]
CNV attenuation compared to EEQ administered alone (C57BL/6 mice; C21 intraperitoneally once a day for 7 days, FIGS. 20A-20C): did not show a significant difference
CNV size in choroidal flat mounts compared to control vehicle (C57BL/6 mice; [6]): significantly reduced
CNV size in cross-sectional SD-OCT compared to control vehicle (C57BL/6 mice; [6]): significantly reduced
vascular leakage in CNV lesions (fluorescein angiography) compared to control vehicle (C57BL/6 mice; [6]): significantly reduced

COc1ccc(CNC(=O)NCc2ccc(OC)cc2)cc1 [MMU]
Solubility (μM) [4]: 11 ± 2^c μM
IC50 (Rat sEH): 218 nM
